Assay [1] concerns F. multivorum. Description: Effect of TCA cycle intermediates in the growth medium on zeaxanthin production. Particulars: growth medium supplemented with TCA intermediate. The class given is cell-based, Flavobacterium multivorum. As for the experimental part:
(§1) Pigment extraction from bacterial cells. One ml of culture broth was centrifuged at 5000 rpm for 10 min at 4° C. The supernatant was discarded and media components of the cell pellet were washed away by repeated suspension in sterile distilled water and centrifugation. The cell mass was subjected to sonication using a sonic dismembrator (Fisher Scientific, Model number F60) in the presence of 1 ml cold, oxygen-free methanol containing 0.01% butylated hydroxy toluene (BHT) (w/v) for 30 seconds (output power 5). Methanol extraction was repeated for complete extraction of carotenoids. The sonicated sample was centrifuged to remove the white cell pellet. The supernatant contains extracted carotenoids.
(§2) High performance liquid chromatography (HPLC). The pigments in methanol were dried by vacuum evaporation in a Speedvac Plus (SC 110, Savant) and re-dissolved in one ml of HPLC mobile phase (hexane: dichloromethane: methanol: N,N′-di-isopropylethylamine (80:19.2:0.7:0.1 v/v)). HPLC separation was carried out at a flow rate of 1.0 ml min^−1 on a cyano column (Microsorb 25 cm length×4.6 mm id, Rainin Instrument Co. Woburn, Mass., U.S.A.). The column was maintained at room temperature and the HPLC detector was operated at 450 nm.
Media optimization for zeaxanthin production.

Assay [2] has as its system F. multivorum ATCC 55238. Description: Effect of salt supplementation of the basal medium on growth and carotenoid production (shake flask). In kind it is cell-based, Flavobacterium multivorum. Particulars: for effect on growth: basal medium supplemented with salt; for effect on the volumetric production of β-carotene / β-carotene as proportion of the total carotenoid content: basal medium supplemented with salt 250 mg/100 ml. Here is the method: as §1
as §2, with “nm. Peak identities were confirmed by photodiode-array spectra and by coelution with authentic standards as necessary.” for “nm.”
Cell growth measurement. Cell growth was monitored by measurement of turbidity at […] with a UV-visible spectrophotometer (Smart Spec™ 3000, BioRad). Samples were suitably diluted (so as to have absorbance of between 0.2 to 0.8) with double distilled water. The absorbance was measured immediately at 500 nm. For cell dry weight (CDW) estimation, the 10 ml sample was centrifuged at 10,000 g for 10 minutes and washed twice with double distilled water by suspension and centrifugation. The supernatant was discarded and the cell pellet was taken to constant weight in an oven at 80° C.
Effect of salt supplementation. F. multivorum was studied for growth and carotenoid production in the liquid basal medium supplemented with the salts listed in Table 1 (see, FIG. 7) (250 mg/100 ml) to evaluate the effect of mineral salts. The F. multivorum cultures were grown in quadruplicate in shake flask cultures at 30° C. on a rotary shaker rotates at 250 rpm.

This is an account of results in patent publication US20050214898A1, “Methods of carotenoid production in bacteria” (priority 2004, published 2005).

Where “and” joins values, the source holds several entries; their conditions need not be identical. Identical values can stand only once. Entries after “also recorded” stand apart in the source; their conditions may differ.

On to `O=C(O)CC(C(=O)O)C(O)C(=O)O` (stereo not drawn) [Isocitric acid, isocitric acid], for which the “effect on the volumetric production of zeaxanthin” value in assay [1] is reported as “maximum stimulatory effect”.
Consider `[Cl-].[Li+]` [Lithium chloride], for which, in assay [2] (at 24 h of growth phase), the “maximum β-carotene level (proportion of total carotenoid)” value was 44 %, w/w. Moreover, the “β-carotene level (proportion of total carotenoid)” value in assay [2] (end of fermentation (48 h)) is reported as 21 % (w/w).
On to `NC(N)=O` [Urea, urea], for which, in assay [2], the effect on growth result was “minor inhibition on growth”, the “effect on the volumetric production of β-carotene” value (from here on “effect … of β-carotene”) is “maximum stimulatory effect” and the “β-carotene as proportion of the total carotenoid content” value (“β-carotene as proportion” for short) is on record as 66 % (w/w). Further, in assay [2] (listed as urea), the “effect … of β-carotene” value is listed as “positive effect” and the “β-carotene as proportion” value was 70 % (w/w).
Consider `[Ca+2].[Cl-].[Cl-]` [calcium chloride], for which, in assay [2], the effect on growth result is given as “minor inhibition on growth”, the “effect … of β-carotene” value is given as “maximum stimulatory effect” and the “β-carotene as proportion” value is listed as 52 % (w/w).
With `O=C(O)CC(O)C(=O)O` (stereo not drawn) [malic acid], the “effect on the volumetric production of zeaxanthin” value in assay [1] is reported as “maximum stimulatory effect”.
As for `O=C([O-])[O-].[Na+].[Na+]` [sodium carbonate], in assay [2], the effect on growth entry is given as “minor inhibition on growth”; the “effect … of β-carotene” value is “positive effect; also recorded: maximum stimulatory effect”; the “β-carotene as proportion” value is 70 % (w/w) and 69 % (w/w).
